Measurements from paper PMC6738096 (British Journal of Cancer, 2019).

Experiment: Phase 1 dose-escalation trial: safety and tolerability (TEAEs, SAEs, DLT, MTD, RP2D)
Procedure: Endpoints included the incidence of DLTs (defined in the ‘Safety' section) in the first 28-day treatment cycle (cycle 1), the frequency and severity of adverse events (AEs) and serious AEs (SAEs) and changes in laboratory values, vital signs, physical examination findings and Eastern Cooperative Oncology Group (ECOG) performance status (PS).
The starting dose was 30 mg, which was determined by review of nonclinical toxicokinetic assessments. A treatment cycle comprised 28 days in the absence of disease progression or unacceptable toxicity. Patients received starting doses ranging from 30 mg once every 24 hours (Q24h) to 480 mg Q24h, and escalation proceeded based on a 3 + 3 design.
The subsequent cohort started at a reduced dosing regimen. Additional dosing schedules were once every 12 hours (Q12h) at 30 and 60 mg and once every 8 hours (Q8h) at 20 and 40 mg.
Toxicities were graded and recorded according to NCI CTCAE version 4.03. Patients were assessed for DLTs during the first 28-day cycle. A DLT was defined as any grade ≥ 3 nonhaematologic toxicity, according to NCI CTCAE version 4.03.

CC(C)NC(=O)[C@H]1CC[C@@H](n2c(NC(=O)c3ccc(F)cc3)nc3ccc(CN4CCC(C(C)(C)O)CC4)cc32)CC1 [TSR-011]
Drug-related TEAE: Abnormal dreams (20 mg Q8h (n = 16)): 1 (6.3) n (%) | Drug-related TEAE: Anaemia (20 mg Q8h (n = 16)): 0 n (%) | Drug-related TEAE: Asthenia (20 mg Q8h (n = 16)): 1 (6.3) n (%) | Drug-related TEAE: Constipation (20 mg Q8h (n = 16)): 2 (12.5) n (%) | Drug-related TEAE: Decreased appetite (20 mg Q8h (n = 16)): 1 (6.3) n (%) | Drug-related TEAE: Diarrhoea (20 mg Q8h (n = 16)): 1 (6.3) n (%) | Drug-related TEAE: Dysaesthesia (20 mg Q8h (n = 16)): 1 (6.3) n (%) | Drug-related TEAE: Dysgeusia (20 mg Q8h (n = 16)): 0 n (%) | Drug-related TEAE: Electrocardiogram QTc prolonged (20 mg Q8h (n = 16)): 1 (6.3) n (%) | Drug-related TEAE: Fatigue (20 mg Q8h (n = 16)): 1 (6.3) n (%) | Drug-related TEAE: Headache (20 mg Q8h (n = 16)): 0 n (%) | Drug-related TEAE: Hot flush (20 mg Q8h (n = 16)): 1 (6.3) n (%) | Drug-related TEAE: Increased transaminases (20 mg Q8h (n = 16)): 0 n (%) | Drug-related TEAE: Insomnia (20 mg Q8h (n = 16)): 0 n (%) | Drug-related TEAE: Myalgia (20 mg Q8h (n = 16)): 0 n (%) | Drug-related TEAE: Nausea (20 mg Q8h (n = 16)): 0 n (%) | Drug-related TEAE: Peripheral oedema (20 mg Q8h (n = 16)): 0 n (%) | Drug-related TEAE: Rash (20 mg Q8h (n = 16)): 0 n (%) | Drug-related TEAE: Vomiting (20 mg Q8h (n = 16)): 2 (12.5) n (%) | Grade 3 TEAE: Anaemia (20 mg Q8h (n = 16)): 2 (12.5) n (%) | Grade 3 TEAE: Ascites (20 mg Q8h (n = 16)): 1 (6.3) n (%) | Grade 3 TEAE: Asthenia (20 mg Q8h (n = 16)): 1 (6.3) n (%) | Grade 3 TEAE: Dyspnoea (20 mg Q8h (n = 16)): 0 n (%) | Grade 3 TEAE: Electrocardiogram QTc prolonged (20 mg Q8h (n = 16)): 0 n (%) | Grade 3 TEAE: Fatigue (20 mg Q8h (n = 16)): 1 (6.3) n (%) | Grade 3 TEAE: Metastases to the central nervous system (20 mg Q8h (n = 16)): 1 (6.3) n (%) | Patients with any TEAE (20 mg Q8h (n = 16)): 16 (100.0) Number (%) | Patients with any TEAE leading to treatment discontinuation (20 mg Q8h (n = 16)): 2 (12.5) Number (%) | Patients with any serious TEAE (20 mg Q8h (n = 16)): 7 (43.8) Number (%) | Patients with any study drug-related TEAE (20 mg Q8h (n = 16)): 9 (56.3) Number (%) | Patients with ≥ 1 treatment-emergent SAE (20 mg Q8h (n = 16)): 7 (43.8) n (%) | SAE class: Blood and lymphatic system disorders (20 mg Q8h (n = 16)): 0 n (%) | SAE class: Cardiac disorders (20 mg Q8h (n = 16)): 0 n (%) | SAE class: Gastrointestinal disorders (20 mg Q8h (n = 16)): 1 (6.3) n (%) | SAE class: General disorders and administration-site conditions (20 mg Q8h (n = 16)): 2 (12.5) n (%) | SAE class: Hepatobiliary disorders (20 mg Q8h (n = 16)): 1 (6.3) n (%) | SAE class: Infections and infestations (20 mg Q8h (n = 16)): 1 (6.3) n (%) | SAE class: Metabolism and nutrition disorders (20 mg Q8h (n = 16)): 1 (6.3) n (%) | SAE class: Musculoskeletal and connective tissue disorders (20 mg Q8h (n = 16)): 1 (6.3) n (%) | SAE class: Neoplasms benign, malignant and unspecified (including cysts and polyps) (20 mg Q8h (n = 16)): 2 (12.5) n (%) | SAE class: Nervous system disorders (20 mg Q8h (n = 16)): 1 (6.3) n (%) | SAE class: Respiratory, thoracic and mediastinal disorders (20 mg Q8h (n = 16)): 0 n (%) | SAE class: Vascular disorders (20 mg Q8h (n = 16)): 1 (6.3) n (%) | SAE: Abdominal pain (20 mg Q8h (n = 16)): 0 n (%) | SAE: Anaemia (20 mg Q8h (n = 16)): 0 n (%) | SAE: Asthenia (20 mg Q8h (n = 16)): 1 (6.3) n (%) | SAE: Basal cell carcinoma (20 mg Q8h (n = 16)): 1 (6.3) n (%) | SAE: Bone pain (20 mg Q8h (n = 16)): 1 (6.3) n (%) | SAE: Deep-vein thrombosis (20 mg Q8h (n = 16)): 1 (6.3) n (%) | SAE: Dehydration (20 mg Q8h (n = 16)): 1 (6.3) n (%) | SAE: Disease progression (20 mg Q8h (n = 16)): 2 (12.5) n (%) | SAE: Dyspnoea (20 mg Q8h (n = 16)): 0 n (%) | SAE: Gastric haemorrhage (20 mg Q8h (n = 16)): 1 (6.3) n (%) | SAE: Gastric ulcer helicobacter (20 mg Q8h (n = 16)): 0 n (%) | SAE: Infection (20 mg Q8h (n = 16)): 0 n (%) | SAE: Lower respiratory tract infection (20 mg Q8h (n = 16)): 0 n (%) | SAE: Mastoiditis (20 mg Q8h (n = 16)): 1 (6.3) n (%) | SAE: Mental impairment (20 mg Q8h (n = 16)): 1 (6.3) n (%) | SAE: Metastases to the central nervous system (20 mg Q8h (n = 16)): 1 (6.3) n (%) | SAE: Pericardial effusion (20 mg Q8h (n = 16)): 0 n (%) | SAE: Pleural effusion (20 mg Q8h (n = 16)): 0 n (%) | SAE: Pneumonia (20 mg Q8h (n = 16)): 0 n (%) | SAE: Portal vein thrombosis (20 mg Q8h (n = 16)): 1 (6.3) n (%) | SAE: Seizure (20 mg Q8h (n = 16)): 1 (6.3) n (%) | SAE: Subarachnoid haemorrhage (20 mg Q8h (n = 16)): 0 n (%) | Total number of TEAEs (20 mg Q8h (n = 16)): 159 | Total number of treatment-emergent SAEs (20 mg Q8h (n = 16)): 14 | Patients with any AE leading to death (20 mg Q8h (n = 16), none deemed related to treatment): 2 (12.5) Number (%) | Drug-related TEAE: Abnormal dreams (40 mg Q8h (n = 31)): 0 n (%) | Drug-related TEAE: Anaemia (40 mg Q8h (n = 31)): 1 (3.2) n (%) | Drug-related TEAE: Asthenia (40 mg Q8h (n = 31)): 0 n (%) | Drug-related TEAE: Constipation (40 mg Q8h (n = 31)): 2 (6.5) n (%) | Drug-related TEAE: Decreased appetite (40 mg Q8h (n = 31)): 0 n (%) | Drug-related TEAE: Diarrhoea (40 mg Q8h (n = 31)): 0 n (%) | Drug-related TEAE: Dysaesthesia (40 mg Q8h (n = 31)): 0 n (%) | Drug-related TEAE: Dysgeusia (40 mg Q8h (n = 31)): 0 n (%) | Drug-related TEAE: Electrocardiogram QTc prolonged (40 mg Q8h (n = 31)): 3 (9.7) n (%) | Drug-related TEAE: Fatigue (40 mg Q8h (n = 31)): 0 n (%) | Drug-related TEAE: Headache (40 mg Q8h (n = 31)): 0 n (%) | Drug-related TEAE: Hot flush (40 mg Q8h (n = 31)): 0 n (%) | Drug-related TEAE: Increased transaminases (40 mg Q8h (n = 31)): 0 n (%) | Drug-related TEAE: Insomnia (40 mg Q8h (n = 31)): 2 (6.5) n (%) | Drug-related TEAE: Myalgia (40 mg Q8h (n = 31)): 0 n (%) | Drug-related TEAE: Nausea (40 mg Q8h (n = 31)): 1 (3.2) n (%) | Drug-related TEAE: Peripheral oedema (40 mg Q8h (n = 31)): 1 (3.2) n (%) | Drug-related TEAE: Rash (40 mg Q8h (n = 31)): 1 (3.2) n (%) | Drug-related TEAE: Vomiting (40 mg Q8h (n = 31)): 1 (3.2) n (%) | Grade 3 TEAE: Anaemia (40 mg Q8h (n = 31)): 2 (6.5) n (%) | Grade 3 TEAE: Ascites (40 mg Q8h (n = 31)): 0 n (%) | Grade 3 TEAE: Asthenia (40 mg Q8h (n = 31)): 1 (3.2) n (%) | Grade 3 TEAE: Dyspnoea (40 mg Q8h (n = 31)): 0 n (%) | Grade 3 TEAE: Electrocardiogram QTc prolonged (40 mg Q8h (n = 31)): 1 (3.2) n (%) | Grade 3 TEAE: Fatigue (40 mg Q8h (n = 31)): 0 n (%) | Grade 3 TEAE: Metastases to the central nervous system (40 mg Q8h (n = 31)): 1 (3.2) n (%) | Patients with any TEAE (40 mg Q8h (n = 31)): 29 (93.5) Number (%) | Patients with any TEAE leading to treatment discontinuation (40 mg Q8h (n = 31)): 5 (16.1) Number (%) | Patients with any serious TEAE (40 mg Q8h (n = 31)): 12 (38.7) Number (%) | Patients with any study drug-related TEAE (40 mg Q8h (n = 31)): 13 (41.9) Number (%) | Patients with ≥ 1 treatment-emergent SAE (40 mg Q8h (n = 31)): 12 (38.7) n (%) | SAE class: Blood and lymphatic system disorders (40 mg Q8h (n = 31)): 2 (6.5) n (%) | SAE class: Cardiac disorders (40 mg Q8h (n = 31)): 1 (3.2) n (%) | SAE class: Gastrointestinal disorders (40 mg Q8h (n = 31)): 1 (3.2) n (%) | SAE class: General disorders and administration-site conditions (40 mg Q8h (n = 31)): 2 (6.5) n (%) | SAE class: Hepatobiliary disorders (40 mg Q8h (n = 31)): 0 n (%) | SAE class: Infections and infestations (40 mg Q8h (n = 31)): 4 (12.9) n (%) | SAE class: Metabolism and nutrition disorders (40 mg Q8h (n = 31)): 0 n (%) | SAE class: Musculoskeletal and connective tissue disorders (40 mg Q8h (n = 31)): 0 n (%) | SAE class: Neoplasms benign, malignant and unspecified (including cysts and polyps) (40 mg Q8h (n = 31)): 1 (3.2) n (%) | SAE class: Nervous system disorders (40 mg Q8h (n = 31)): 2 (6.5) n (%) | SAE class: Respiratory, thoracic and mediastinal disorders (40 mg Q8h (n = 31)): 1 (3.2) n (%) | SAE class: Vascular disorders (40 mg Q8h (n = 31)): 0 n (%) | SAE: Abdominal pain (40 mg Q8h (n = 31)): 1 (3.2) n (%) | SAE: Anaemia (40 mg Q8h (n = 31)): 2 (6.5) n (%) | SAE: Asthenia (40 mg Q8h (n = 31)): 0 n (%) | SAE: Basal cell carcinoma (40 mg Q8h (n = 31)): 0 n (%)
